Legend:
P. ultimum = test: Greenhouse seed treatment efficacy, Pioneer hybrid 34M95 seeds in Pythium-infested soil; format: in vivo; settings: vs uninoculated seeds
Text: Seeds of the Pioneer hybrid 34M95 were untreated and treated with mefenoxam, azoxystrobin or trifloxystrobin at the rates described in Table 3. To test the efficacy of the seed treatment fungicides pasteurized soil was infested with each isolate of Pythium at a rate of 7.8% (volume of inoculum/volume of soil). All these studies were done under greenhouse conditions, and data presented as a comparison against uninoculated seeds.

Pythium = test: Sensitivity of Pythium isolates to phenylamide and strobilurin fungicides (summary); format: cell-based; settings: isolates from several species of Pythium that are insensitive to mefenoxam
Description: Plant and soil samples were collected from fields where plant stand establishment issues appeared to be increasing when using standard mefenoxam or metalaxyl seed treatment fungicide programs. Fungal pathogens were isolated from the plant and soil material. Pythium species were identified and studies were conducted to determine the sensitivity of these fungal pathogens to phenylamide and strobilurin fungicides. It can be seen that isolates from several species of Pythium that are insensitive to mefenoxam are sensitive to azoxystrobin or trifloxystrobin.

[1] = P. ultimum 03-047, seed treatment 1 g a.i/100 KgSeeds
[2] = P. ultimum 03-795, seed treatment 1 g a.i/100 KgSeeds
[3] = P. ultimum 03-047, seed treatment 2 g a.i/100 KgSeeds
[4] = P. ultimum 03-795, seed treatment 2 g a.i/100 KgSeeds
[5] = P. ultimum 03-047, seed treatment 5 g a.i/100 KgSeeds
[6] = P. ultimum 03-795, seed treatment 5 g a.i/100 KgSeeds

| Compound | % fresh weight reduction (P. ultimum; [1]) | % stand reduction (P. ultimum; [1]) | % fresh weight reduction (P. ultimum; [2]) | % stand reduction (P. ultimum; [2]) | sensitivity of mefenoxam-insensitive Pythium isolates (Pythium) | % fresh weight reduction (P. ultimum; [3]) | % stand reduction (P. ultimum; [3]) | % fresh weight reduction (P. ultimum; [4]) | % stand reduction (P. ultimum; [4]) | % fresh weight reduction (P. ultimum; [5]) | % stand reduction (P. ultimum; [5]) | % fresh weight reduction (P. ultimum; [6]) | % stand reduction (P. ultimum; [6]) |
| --- | --- | --- | --- | --- | --- | --- | --- | --- | --- | --- | --- | --- | --- |
| CO/C=C(/C(=O)OC)c1ccccc1Oc1cc(Oc2ccccc2C#N)ncn1 [Azoxystrobin, azoxystrobin] | 7.9% | 0.0% | 24.7% | 6.7% | sensitive | – | – | – | – | – | – | – | – |
| COCC(=O)N(c1c(C)cccc1C)[C@H](C)C(=O)OC [Mefenoxam, mefenoxam] | – | – | – | – | – | 5.2% | 6.7% | 15.3% | 6.7% | – | – | – | – |
| CON=C(C(=O)OC)c1ccccc1CON=C(C)c1cccc(C(F)(F)F)c1 [Trifloxystrobin, trifloxystrobin] | – | – | – | – | sensitive | – | – | – | – | 0.0% | 0.0% | 24.1% | 6.7% |

From patent US20090137616A1, “METHOD FOR THE CONTROL OF PHYTOPATHOGENIC FUNGI” (Syngenta Crop Protection, Inc., priority 2004, published 2009)
